What all share (experiment): KINOMEscan
What all share (format): binding
Common to all, as to details: read-out: % control activity remaining

For test [1], the target named is T1, ERK1 (Homo sapiens, UniProt P27361).
T1 construct: purchased Eurofins DiscoverX KINOMEscan

Test [2] deals with T2, MLK3 (Homo sapiens, UniProt Q16584).
T2 construct: purchased Eurofins DiscoverX KINOMEscan

Test [3] concerns the target T3, MST4 (Homo sapiens, UniProt Q9P289).
T3 construct: purchased Eurofins DiscoverX KINOMEscan

Test [4] has as its target T4, PKAC-alpha (Homo sapiens, UniProt P17612).
T4 construct: purchased Eurofins DiscoverX KINOMEscan

The target of test [5] is T5, EGFR(S752-I759del) (Homo sapiens, UniProt P00533, DEL752-759).
T5 construct: purchased Eurofins DiscoverX KINOMEscan

In test [6] the target is T6, ULK2 (Homo sapiens, UniProt Q8IYT8).
T6 construct: purchased Eurofins DiscoverX KINOMEscan
T6 sequence (Q8IYT8 1-1036): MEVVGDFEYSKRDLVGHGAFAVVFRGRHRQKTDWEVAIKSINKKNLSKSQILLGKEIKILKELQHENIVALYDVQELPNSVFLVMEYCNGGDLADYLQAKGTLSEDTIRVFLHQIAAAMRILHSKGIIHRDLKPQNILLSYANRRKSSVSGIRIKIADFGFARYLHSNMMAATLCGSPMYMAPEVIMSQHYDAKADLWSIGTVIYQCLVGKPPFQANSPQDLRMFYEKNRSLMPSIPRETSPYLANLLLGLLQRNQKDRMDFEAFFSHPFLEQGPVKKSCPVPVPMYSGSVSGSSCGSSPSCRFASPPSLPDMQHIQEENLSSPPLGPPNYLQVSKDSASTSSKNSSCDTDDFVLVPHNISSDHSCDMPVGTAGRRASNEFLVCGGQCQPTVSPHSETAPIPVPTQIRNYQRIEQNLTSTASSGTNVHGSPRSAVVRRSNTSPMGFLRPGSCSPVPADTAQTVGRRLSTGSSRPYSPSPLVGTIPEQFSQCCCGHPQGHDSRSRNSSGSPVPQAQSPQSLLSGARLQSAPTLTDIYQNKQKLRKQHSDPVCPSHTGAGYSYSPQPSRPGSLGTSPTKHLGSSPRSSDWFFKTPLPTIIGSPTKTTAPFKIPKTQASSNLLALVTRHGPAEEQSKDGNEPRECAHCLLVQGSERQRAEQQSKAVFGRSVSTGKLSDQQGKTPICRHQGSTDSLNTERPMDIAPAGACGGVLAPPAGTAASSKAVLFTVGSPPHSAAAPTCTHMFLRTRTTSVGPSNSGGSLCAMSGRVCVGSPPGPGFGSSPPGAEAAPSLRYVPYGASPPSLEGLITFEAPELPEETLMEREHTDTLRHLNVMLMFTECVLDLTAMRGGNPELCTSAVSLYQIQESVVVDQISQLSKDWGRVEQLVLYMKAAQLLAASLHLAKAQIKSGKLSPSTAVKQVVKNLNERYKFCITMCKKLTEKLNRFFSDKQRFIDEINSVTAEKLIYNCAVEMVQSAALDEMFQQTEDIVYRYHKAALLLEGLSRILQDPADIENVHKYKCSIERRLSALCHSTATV

Test [7] addresses T7, ERK3 (Homo sapiens, UniProt Q16659).
T7 construct: purchased Eurofins DiscoverX KINOMEscan

Test [8] has as its target T8, AMPK-alpha1 (Homo sapiens, UniProt Q13131).
T8 construct: purchased Eurofins DiscoverX KINOMEscan

In test [9] the target is T9, CSNK2A2 (Homo sapiens, UniProt P19784).
T9 construct: purchased Eurofins DiscoverX KINOMEscan

In test [10] the target is T10, KIT(D816V) (Homo sapiens, UniProt P10721, D816V).
T10 construct: purchased Eurofins DiscoverX KINOMEscan

Test [11] addresses T11, FER (Homo sapiens, UniProt P16591).
T11 construct: purchased Eurofins DiscoverX KINOMEscan

Test [12] deals with T12, PIP5K1A (Homo sapiens, UniProt Q99755).
T12 construct: purchased Eurofins DiscoverX KINOMEscan

Test [13] deals with T13, YANK3 (Homo sapiens, UniProt Q86UX6).
T13 construct: purchased Eurofins DiscoverX KINOMEscan

Test [14] deals with T14, PCTK3 (Homo sapiens, UniProt Q07002).
T14 construct: purchased Eurofins DiscoverX KINOMEscan

The target in test [15] is T15, p38-alpha (Homo sapiens, UniProt Q16539).
T15 construct: purchased Eurofins DiscoverX KINOMEscan

The target in test [16] is T16, PHKG2 (Homo sapiens, UniProt P15735).
T16 construct: purchased Eurofins DiscoverX KINOMEscan
T16 sequence (P15735 1-406): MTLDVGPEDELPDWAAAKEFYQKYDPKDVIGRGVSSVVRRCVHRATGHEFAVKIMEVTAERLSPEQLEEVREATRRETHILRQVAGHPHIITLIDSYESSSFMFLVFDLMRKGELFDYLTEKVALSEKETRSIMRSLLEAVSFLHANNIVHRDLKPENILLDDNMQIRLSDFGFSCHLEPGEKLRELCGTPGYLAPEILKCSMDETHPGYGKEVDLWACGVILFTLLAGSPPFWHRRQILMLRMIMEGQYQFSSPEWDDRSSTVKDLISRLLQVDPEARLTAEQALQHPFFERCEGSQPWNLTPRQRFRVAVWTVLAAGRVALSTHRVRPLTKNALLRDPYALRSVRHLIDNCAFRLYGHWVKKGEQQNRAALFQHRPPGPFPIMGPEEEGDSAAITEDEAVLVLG

In test [17] the target is T17, MAP4K5 (Homo sapiens, UniProt Q9Y4K4).
T17 construct: purchased Eurofins DiscoverX KINOMEscan

SMILES strings stand for the structures.

Results on three compounds are retold here after paper PMC6437697 (Journal of Medicinal Chemistry, 2019).

T9 sequence (P19784 whole entry): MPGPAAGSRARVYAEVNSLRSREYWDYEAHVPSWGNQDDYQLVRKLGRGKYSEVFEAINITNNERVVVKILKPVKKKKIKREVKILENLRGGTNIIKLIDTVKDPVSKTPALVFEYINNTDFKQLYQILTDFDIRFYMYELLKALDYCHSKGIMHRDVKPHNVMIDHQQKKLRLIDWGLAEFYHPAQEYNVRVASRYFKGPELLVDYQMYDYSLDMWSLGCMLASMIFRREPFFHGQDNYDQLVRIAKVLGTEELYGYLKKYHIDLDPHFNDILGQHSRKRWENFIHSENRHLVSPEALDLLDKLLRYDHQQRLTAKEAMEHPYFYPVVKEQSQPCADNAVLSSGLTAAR
T1 sequence (P27361 whole entry): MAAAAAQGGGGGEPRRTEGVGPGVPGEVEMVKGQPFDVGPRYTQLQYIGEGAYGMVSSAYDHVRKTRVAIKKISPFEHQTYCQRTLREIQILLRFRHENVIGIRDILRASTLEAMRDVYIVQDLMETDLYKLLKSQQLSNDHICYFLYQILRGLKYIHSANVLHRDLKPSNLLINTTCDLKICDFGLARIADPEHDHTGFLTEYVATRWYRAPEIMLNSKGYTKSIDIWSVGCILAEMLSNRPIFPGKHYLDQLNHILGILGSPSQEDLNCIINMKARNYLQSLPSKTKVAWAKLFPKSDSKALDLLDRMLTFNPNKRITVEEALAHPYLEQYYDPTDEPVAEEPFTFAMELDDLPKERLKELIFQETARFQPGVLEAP
T13 sequence (Q86UX6 whole entry): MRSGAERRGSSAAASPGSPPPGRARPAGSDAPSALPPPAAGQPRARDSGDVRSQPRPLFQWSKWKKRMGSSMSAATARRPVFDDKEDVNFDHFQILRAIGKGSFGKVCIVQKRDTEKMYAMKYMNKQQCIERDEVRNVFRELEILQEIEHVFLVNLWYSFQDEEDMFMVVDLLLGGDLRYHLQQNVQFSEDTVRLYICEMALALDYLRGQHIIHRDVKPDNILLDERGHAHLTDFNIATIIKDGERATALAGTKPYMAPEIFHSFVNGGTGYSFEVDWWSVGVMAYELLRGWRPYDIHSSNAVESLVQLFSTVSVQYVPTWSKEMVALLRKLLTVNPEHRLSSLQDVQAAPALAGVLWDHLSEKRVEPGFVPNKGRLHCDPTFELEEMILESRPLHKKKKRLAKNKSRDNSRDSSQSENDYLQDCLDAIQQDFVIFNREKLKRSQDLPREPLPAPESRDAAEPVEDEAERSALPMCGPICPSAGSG
T14 sequence (Q07002 whole entry): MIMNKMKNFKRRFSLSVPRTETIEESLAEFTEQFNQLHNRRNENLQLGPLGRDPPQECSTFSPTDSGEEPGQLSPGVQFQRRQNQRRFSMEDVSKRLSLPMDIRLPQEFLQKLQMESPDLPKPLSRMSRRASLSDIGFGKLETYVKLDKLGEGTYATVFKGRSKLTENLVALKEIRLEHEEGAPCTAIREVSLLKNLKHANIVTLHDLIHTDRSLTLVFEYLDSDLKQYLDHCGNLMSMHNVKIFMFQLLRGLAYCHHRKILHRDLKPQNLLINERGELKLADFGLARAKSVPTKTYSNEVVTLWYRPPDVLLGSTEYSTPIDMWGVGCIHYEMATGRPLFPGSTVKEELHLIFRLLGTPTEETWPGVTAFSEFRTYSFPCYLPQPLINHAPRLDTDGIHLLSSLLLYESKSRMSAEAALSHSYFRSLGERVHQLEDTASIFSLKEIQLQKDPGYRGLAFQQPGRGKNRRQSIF
T8 sequence (Q13131 whole entry): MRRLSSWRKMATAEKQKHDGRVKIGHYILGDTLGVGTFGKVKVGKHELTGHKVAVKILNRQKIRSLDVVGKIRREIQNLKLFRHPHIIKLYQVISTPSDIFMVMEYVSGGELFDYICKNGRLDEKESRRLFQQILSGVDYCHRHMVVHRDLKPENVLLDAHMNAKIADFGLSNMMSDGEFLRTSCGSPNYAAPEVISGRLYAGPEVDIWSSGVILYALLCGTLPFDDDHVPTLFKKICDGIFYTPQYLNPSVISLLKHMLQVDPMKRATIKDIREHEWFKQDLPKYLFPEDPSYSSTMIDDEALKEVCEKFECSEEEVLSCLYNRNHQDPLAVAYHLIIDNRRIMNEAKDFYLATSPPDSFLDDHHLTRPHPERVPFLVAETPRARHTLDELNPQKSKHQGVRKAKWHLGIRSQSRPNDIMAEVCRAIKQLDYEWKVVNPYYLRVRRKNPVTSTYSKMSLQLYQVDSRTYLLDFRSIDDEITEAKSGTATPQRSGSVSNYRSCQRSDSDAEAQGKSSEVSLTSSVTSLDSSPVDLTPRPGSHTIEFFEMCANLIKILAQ
T15 sequence (Q16539 whole entry): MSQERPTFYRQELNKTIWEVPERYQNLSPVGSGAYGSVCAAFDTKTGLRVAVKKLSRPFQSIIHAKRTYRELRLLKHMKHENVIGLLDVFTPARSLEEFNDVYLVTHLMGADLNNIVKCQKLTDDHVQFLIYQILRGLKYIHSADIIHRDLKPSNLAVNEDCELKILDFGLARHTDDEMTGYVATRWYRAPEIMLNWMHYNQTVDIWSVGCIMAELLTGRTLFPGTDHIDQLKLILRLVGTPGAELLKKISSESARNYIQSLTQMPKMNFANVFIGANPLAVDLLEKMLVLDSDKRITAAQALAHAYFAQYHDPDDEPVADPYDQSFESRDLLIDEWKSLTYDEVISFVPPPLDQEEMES
T5 sequence (P00533 with tags, fused parts or gaps DEL752-759 limits assumed): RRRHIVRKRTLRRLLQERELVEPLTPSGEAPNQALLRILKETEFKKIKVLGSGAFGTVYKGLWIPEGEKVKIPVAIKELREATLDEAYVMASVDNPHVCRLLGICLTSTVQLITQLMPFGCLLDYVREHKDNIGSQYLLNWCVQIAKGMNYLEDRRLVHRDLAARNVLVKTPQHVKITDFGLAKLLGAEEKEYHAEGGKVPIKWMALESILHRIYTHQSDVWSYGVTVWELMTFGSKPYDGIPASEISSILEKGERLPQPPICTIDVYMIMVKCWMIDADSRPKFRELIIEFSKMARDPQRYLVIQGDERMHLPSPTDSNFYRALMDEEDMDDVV
T3 sequence (Q9P289 whole entry): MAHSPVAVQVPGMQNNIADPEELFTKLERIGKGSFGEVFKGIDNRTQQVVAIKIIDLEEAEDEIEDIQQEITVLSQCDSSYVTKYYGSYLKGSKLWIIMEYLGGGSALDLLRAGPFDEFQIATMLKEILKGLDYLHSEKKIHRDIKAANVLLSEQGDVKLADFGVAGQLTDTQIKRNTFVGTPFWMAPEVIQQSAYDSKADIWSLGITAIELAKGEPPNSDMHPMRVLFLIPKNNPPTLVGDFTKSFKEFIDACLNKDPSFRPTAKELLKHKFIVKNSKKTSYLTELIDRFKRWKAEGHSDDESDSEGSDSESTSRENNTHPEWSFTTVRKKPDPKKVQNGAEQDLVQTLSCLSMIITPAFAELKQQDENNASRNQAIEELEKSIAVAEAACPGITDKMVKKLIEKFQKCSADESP
T12 sequence (Q99755 whole entry): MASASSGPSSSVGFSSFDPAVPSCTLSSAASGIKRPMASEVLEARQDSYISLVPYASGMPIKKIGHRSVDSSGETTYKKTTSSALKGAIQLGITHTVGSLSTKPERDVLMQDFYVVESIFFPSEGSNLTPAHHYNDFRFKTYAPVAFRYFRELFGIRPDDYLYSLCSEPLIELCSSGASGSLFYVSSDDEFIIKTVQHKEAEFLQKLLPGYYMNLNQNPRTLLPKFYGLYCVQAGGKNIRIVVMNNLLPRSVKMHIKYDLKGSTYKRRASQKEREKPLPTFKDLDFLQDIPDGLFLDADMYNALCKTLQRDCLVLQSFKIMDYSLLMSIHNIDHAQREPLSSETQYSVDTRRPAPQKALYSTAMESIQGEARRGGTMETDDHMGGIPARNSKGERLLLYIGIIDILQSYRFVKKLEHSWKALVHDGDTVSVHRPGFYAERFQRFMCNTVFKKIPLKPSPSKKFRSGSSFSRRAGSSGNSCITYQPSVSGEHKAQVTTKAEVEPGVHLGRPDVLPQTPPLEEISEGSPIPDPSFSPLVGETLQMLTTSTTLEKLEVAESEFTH
T11 sequence (P16591 whole entry): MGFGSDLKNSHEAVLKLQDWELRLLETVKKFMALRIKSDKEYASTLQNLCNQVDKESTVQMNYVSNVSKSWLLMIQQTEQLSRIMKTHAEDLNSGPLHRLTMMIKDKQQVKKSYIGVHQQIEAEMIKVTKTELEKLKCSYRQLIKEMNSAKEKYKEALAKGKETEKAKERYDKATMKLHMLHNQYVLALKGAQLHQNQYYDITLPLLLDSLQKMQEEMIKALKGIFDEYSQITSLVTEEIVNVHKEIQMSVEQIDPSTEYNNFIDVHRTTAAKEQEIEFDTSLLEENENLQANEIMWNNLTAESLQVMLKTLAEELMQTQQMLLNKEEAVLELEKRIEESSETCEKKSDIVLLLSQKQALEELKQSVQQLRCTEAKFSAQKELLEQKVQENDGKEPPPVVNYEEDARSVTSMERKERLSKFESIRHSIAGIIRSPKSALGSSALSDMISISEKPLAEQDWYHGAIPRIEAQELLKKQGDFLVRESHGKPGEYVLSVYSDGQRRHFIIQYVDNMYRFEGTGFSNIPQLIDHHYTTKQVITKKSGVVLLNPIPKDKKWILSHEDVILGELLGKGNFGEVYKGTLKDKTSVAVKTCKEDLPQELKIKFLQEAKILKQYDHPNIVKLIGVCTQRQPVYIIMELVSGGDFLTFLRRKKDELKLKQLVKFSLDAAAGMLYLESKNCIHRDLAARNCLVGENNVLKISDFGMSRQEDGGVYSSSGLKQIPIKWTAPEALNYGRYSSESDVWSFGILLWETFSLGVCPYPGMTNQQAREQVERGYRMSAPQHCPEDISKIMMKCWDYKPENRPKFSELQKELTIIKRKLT

Consider `Clc1cc(NCC2CC2)c2ncc(-c3ccc4[nH]ncc4c3)n2n1` [compound 2, 6-Chloro-N-(cyclopropylmethyl)-3-(1H-indazol-5-yl)imidazo[1,2-b]pyridazin-8-amine], for which the remaining binding at 1 µM in test [1] amounted to 95%; in test [2] it was 100%; in [3], 88%; in test [4] it was 68%; in test [5], 94%; in [6] it was 98%. Moreover, the remaining binding at 1 µM in [7] stood at 96%; in test [8] it was 96%; in [9], 94%; in test [10], 78%; in [11], 98%; in test [12], 100%. Also, the remaining binding at 1 µM worked out at 100% in test [13]; 79% in [14]; 100% in [15]; 85% in [16]; 98% in [17].
Turning to `O=C(CN1CCOCC1)N[C@H]1CC[C@H](Nc2cc(Cl)nn3c(-c4ccc5[nH]ncc5c4)cnc23)CC1` [compound 26], the remaining binding at 1 µM in test [1] came to 100%; in test [2], 100%; in [3], 84%; in [4], 100%; in [5], 95%; in [6] it was 94%. For the same compound, the remaining binding at 1 µM in test [7] is 68%; in [8] it was 85%; in [9], 100%; in test [10], 29%; in test [11], 100%; in test [12] it was 80%. The remaining binding at 1 µM stood at 99% in test [13]; 80% in test [14]; 99% in [15]; 29% in test [16]; 87% in test [17].
Turning to `CN1CCC(CNc2cc(Cl)nn3c(-c4cc5nc(Nc6ccccc6)[nH]c5cc4F)cnc23)CC1` [compound 31, 6-Chloro-3-(6-fluoro-2-(phenylamino)-1H-benzo[d]imidazol-5-yl)-N-((1-methylpiperidin-4-yl)methyl)imidazo[1,2-b]pyridazin-8-amine], the remaining binding at 1 µM in test [1] is 92%; in test [2], 81%; in [3], 100%; in [4] it was 94%; in [5], 97%; in test [6], 83%. The remaining binding at 1 µM in test [7] is 94%; in test [8], 94%; in test [9], 100%; in test [10], 81%; in test [11], 82%; in [12] it was 91%. Further, the remaining binding at 1 µM amounted to 73% in test [13]; 88% in test [14]; 95% in [15]; 98% in test [16]; 100% in [17].
